The term IC50 denotes the concentration that inhibits the measured activity by half.

Read-outs that look alike come from different tables or passages of the source. Square brackets hold non-standard residues; d marks the D form. Ends that are not written are not given here. Peptide text beside a SMILES is read from it. dPhe(4-NO2) = N[C@H](Cc1ccc([N+](=O)[O-])cc1)C(=O)O; dPhe(F5) = N[C@H](Cc1c(F)c(F)c(F)c(F)c1F)C(=O)O; dBpa = N[C@H](Cc1ccc(C(=O)c2ccccc2)cc1)C(=O)O; dCha = N[C@H](CC1CCCCC1)C(=O)O Some results are limits rather than exact numbers.

The test system of data set [1] is Jurkat cells. Description: G2 checkpoint abrogation, flow cytometry of bleomycin treated Jurkat cells. It counts as cell-based, human. The conditions noted are these: for G2 abrogating dose: dose with 40 μg/ml bleomycine giving detectable G2 checkpoint abrogation, 24 hours; for G2 checkpoint abrogating activity (in words): Jurkat cells with bleomycin 40 μg/ml.
Description: Flow cytometry analysis of G2 checkpoint abrogation was performed using human leukemia derived Jurkat cell line. In brief, cultured cells were treated with various doses of peptide/peptidomimetic and 40 μg/ml bleomycine for 24 hr. The DNA of the cells was stained with propidium iodide and analyzed by flow cytometry.
The G2 checkpoint abrogating activity of various arginine rich sequences at different doses on cells treated with bleomycine was studied. Briefly, peptides were added to culture medium of Jurkat cells with bleomycin (40 μg/ml) at 0.2 μg/ml, 0.39 μg/ml, 0.78 μg/ml, 1.56 μg/ml, 3.125 μg/ml, 6.25 μg/ml, 12.5 μg/ml, 25 μg/ml and 50 μg/ml. Cells were subsequently harvested after 24 hours, stained with Krishan's solution, and analyzed with flow cytometry as previously described.
Data set [2] deals with Jurkat cells. Description: Side effect of peptide used alone: Jurkat cell cycle disturbance (flow cytometry). It counts as cell-based. To be noted: dose that produced Jurkat cell cycle disturbance, peptide alone. The procedure: Cell-cycle analysis The cell cycle status of the cells treated with bleomycin or adriamcin were analyzed by flow cytometry as described by Kawabe (1997) Nature 385:454-458. In brief, two million cells were re-suspended and incubated in 200 μl Krishan's solution (0.1% Sodium citrate, 50 μg/ml PI, 20 μg/ml RNase A and 0.5% NP-40) for 1 hr at 4° C. and analyzed by a flow cytometry, FACScan™ (Beckton Dickinson, Mountain View, Calif.) with the program CELLQuest™ (Beckton Dickinson).
(§1) The “Appearance of side effect when used alone” indicates the peptide/peptidomimetic dose that produced Jurkat cell cycle disturbance, i.e., the appearance of significant amounts of SubG1 cells (dead cells) or cells in which the DNA content of each varies more than usual. […] The “G2 abrogating dose” indicates the peptide/peptidomimetic dose with 40 μg/ml bleomycine that produced detectable G2 checkpoint abrogation activity following treatment for 24 hours. The “Appearance of side effect when used with colchicine” indicates the peptide/peptidomimetic dose with 5 μg/ml colchicine that produced Jurkat cell cycle disturbance following treatment for 24 hours.

The subject of data set [3] is Jurkat cells. Description: M phase checkpoint abrogation / non specific toxicity, colchicine treated Jurkat cells. The conditions noted are these: dose with 5 μg/ml colchicine that produced Jurkat cell cycle disturbance, 24 hours. Format: cell-based. The procedure:
Flow cytometry analysis of M phase checkpoint abrogation by the compounds was performed using human T cell leukemia Jurkat cell line treated with colchicine (5 μg/ml or 0.5 μg/ml) and various doses of peptide/peptidomimetics for 24 hr (FIG. 12). The DNA of the cells was stained and analyzed by flow cytometry as described above.
as §1
A comparison between G2 checkpoint abrogating activity and non specific toxicity (M checkpoint abrogation) by CB501 was performed. In brief, Jurkat cells were treated with 40 μg/ml bleomycin or 0.5 μg/ml colchicine for G2 checkpoint abrogating activity and non specific toxicity, respectively. The DNA amount in each of the treated cells was analyzed by flow cytometry, as previously described.

Data set [4] is described as follows: Human serum treatment analysis (residual G2 checkpoint abrogating activity). Format: in vitro ADME. The conditions noted are these: 37 degrees. How it is done:
Serum analysis was performed to determine the stability of peptides in mouse and human serum. Briefly, peptides (10 mM or 2.5 mM) were incubated with freshly prepared human serum at 37 degrees for 1 hr. […] Jurkat cells were treated with the serum with or without peptides and bleomycin (40 μg/ml) and incubated for 24 hr. The population of G2 phase cells was determined by flow cytometry as previously described. The residual G2 checkpoint abrogating activity of serum treated peptides were determined by comparing the % G2 cells of the treated serum and the standard curve produced with medium treated peptides, bleomycin and Jurkat cells (Table 5A).

For data set [5], the target named is T1, recombinant human full length Chk1 (Homo sapiens, UniProt O14757).
T1 construct: baculovirus derived recombinant human full length Chk1 with histidine tag; histidine tag; host or cells: baculovirus system (insect cells) for Chk1; E. coli for the GST-Cdc25C substrate
T1 sequence (O14757 1-476): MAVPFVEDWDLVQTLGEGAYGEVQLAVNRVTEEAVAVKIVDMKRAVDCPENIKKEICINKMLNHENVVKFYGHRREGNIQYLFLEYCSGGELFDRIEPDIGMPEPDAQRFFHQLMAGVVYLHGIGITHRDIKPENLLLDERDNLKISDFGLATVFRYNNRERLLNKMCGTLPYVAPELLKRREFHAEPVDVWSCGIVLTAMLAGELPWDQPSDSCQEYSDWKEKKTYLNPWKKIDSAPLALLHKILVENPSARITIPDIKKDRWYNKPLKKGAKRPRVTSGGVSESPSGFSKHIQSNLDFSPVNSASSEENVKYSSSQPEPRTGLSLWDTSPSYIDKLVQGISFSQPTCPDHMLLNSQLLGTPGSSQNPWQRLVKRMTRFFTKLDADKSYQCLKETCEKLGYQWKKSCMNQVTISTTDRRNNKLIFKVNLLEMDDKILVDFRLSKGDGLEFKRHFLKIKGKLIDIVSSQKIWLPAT
Description: In vitro kinase inhibition (CycLex), phosphorylation of serine 216 on GST-Cdc25C. Format: biochemical. How it is done:
(§2) In vitro kinase inhibition analysis was performed by CycLex, Co. Ltd., Nagano, Japan. Briefly, baculovirus derived recombinant human full length Chk1 with histidine tag or E. Coli derived recombinant human full length Chk2 fused with GST were used as kinases. E. Coli derived recombinant GST-Cdc25C (amino acis 167-267) was used as a substrate. Reaction conditions were 20 mM Hepes-KOH (pH7.5), 1 mM DTT, 80 μg/ml BSA, 10 mM MgCl2 and […] at 30 degree for 60 min. The phosphorylation of serine 216 on GST-Cdc25C was detected by anti-Cdc25C-phosphorylated 5216 antibody with enzyme linked immune assay.

The target in data set [6] is T2, recombinant human full length Chk2 (Homo sapiens, UniProt O96017).
T2 construct: E. Coli derived recombinant human full length Chk2 fused with GST; host or cells: E. coli
T2 sequence (O96017 whole entry, the tested form may be a part): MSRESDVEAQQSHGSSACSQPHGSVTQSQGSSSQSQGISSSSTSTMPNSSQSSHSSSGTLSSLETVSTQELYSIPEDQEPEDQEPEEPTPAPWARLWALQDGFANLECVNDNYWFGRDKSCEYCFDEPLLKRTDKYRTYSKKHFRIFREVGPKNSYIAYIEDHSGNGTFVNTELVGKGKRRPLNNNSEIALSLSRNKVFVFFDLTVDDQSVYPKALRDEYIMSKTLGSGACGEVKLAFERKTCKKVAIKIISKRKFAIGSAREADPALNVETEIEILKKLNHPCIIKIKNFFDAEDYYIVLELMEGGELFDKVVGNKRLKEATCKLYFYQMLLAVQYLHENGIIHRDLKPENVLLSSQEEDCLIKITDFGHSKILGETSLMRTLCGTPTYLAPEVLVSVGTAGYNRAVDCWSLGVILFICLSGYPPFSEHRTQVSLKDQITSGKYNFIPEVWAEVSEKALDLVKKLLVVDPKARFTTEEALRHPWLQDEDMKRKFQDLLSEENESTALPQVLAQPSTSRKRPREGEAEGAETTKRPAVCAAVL
The description is as above. Format: biochemical. How it is done:
as §2

In the next data set the test system is MIAPaCa2. To be noted: three hours exposure. The procedure: The medium was changed and incubated an additional 24, 48 or 72 hour. Following incubation, 20 μl of alamarBlue 90% reagent was added to each well for another 6 hours for detection of cell viability by fluorescent intensity. Fluorescent intensity was measured using a Spectrafluor Plus plate reader with exitation 530 nm and emission 590 nm. The IC50 was calculated (Table 6).

For a further data set, the system named is CT26WT. Description: CT26WT s.c. syngeneic tumor model in Balb/c mice (Example 9). The conditions noted are these: CDDP 5 mg/kg, CBP501 7.5 mg/kg, anti-mPD1 200 ug, 3 dosing cycles. It counts as in vivo, mouse. How it is done:
Relative sizes of tumors were plotted versus the number of days after initiation of the treatment.
All animal studies were conducted according to the protocols approved by the institutional animal care committee of CanBas Co. Ltd. Six-week-old female Balb/c mice (Charles River Laboratories Japan Inc.) were inoculated subcutaneously in the flank with a suspension of CT26WT (5×10^5 cells). […] Tumor volumes, measured thrice weekly with a pair of calipers, were calculated with the following formula: volume (mm^3)=[width (mm)]^2×length (mm)/2. Growth curves after treatment were generated by plotting the mean+/−SE of tumor sizes.
Treatments were initiated when tumor size were reached (˜100 mm^3).

For the compound `N=C(N)NCCC[C@H](NC(=O)CNC(=O)[C@@H](N)Cc1ccc(O)cc1)C(=O)N[C@@H](CCCCN)C(=O)N[C@@H](CCCCN)C(=O)N[C@@H](CCCNC(=N)N)C(=O)N[C@@H](CCCNC(=N)N)C(=O)N[C@@H](CCC(N)=O)C(=O)N[C@@H](CCCNC(=N)N)C(=O)N[C@@H](CCCNC(=N)N)C(=O)N[C@@H](CCCNC(=N)N)C(=O)N[C@@H](CC1CCCCC1)C(=O)N[C@@H](Cc1c(F)c(F)c(F)c(F)c1F)C(=O)N[C@@H](CCCNC(=N)N)C(=O)N[C@@H](CO)C(=O)N1CCC[C@H]1C(=O)N[C@@H](CO)C(=O)N[C@@H](Cc1ccc(O)cc1)C(=O)N[C@@H](Cc1ccc(O)cc1)C(=O)O` [CBP413, (1-Tyr)(1-Gly)(1-Arg)(1-Lys)(1-Lys)(1-Arg)(1-Arg)(1-Gln)(1-Arg)(1-Arg)(1-Arg)(1-Cha)(1-Phe-2,3,4,5,6-F)(1-Arg)(1-Ser)(1-Pro)(1-Ser)(1-Tyr)(1-Tyr)], the G2 abrogating dose with Jurkat cells [1] is ≥1.56 µM. Besides, the “Appearance of side effect when used alone” value in the data set on Jurkat cells [2] was >25 µM. Also, the “Appearance of side effect when used with Colchicine” value in the data set with Jurkat cells [3] was >25 µM. Moreover, the “Residual activity of peptide after 1 hr human serum treatment” value in data set [4] is listed as <0.4% of original.

Regarding `N=C(N)NCCC[C@@H](NC(=O)[C@@H](CCCNC(=N)N)NC(=O)[C@@H](CCC(N)=O)NC(=O)[C@@H](CCCNC(=N)N)NC(=O)[C@@H](CCCNC(=N)N)NC(=O)[C@@H](CCCNC(=N)N)NC(=O)[C@@H](CC1CCCCC1)NC(=O)[C@@H](Cc1ccc([N+](=O)[O-])cc1)NC(=O)[C@@H](CO)NC(=O)[C@@H](Cc1c[nH]c2ccccc12)NC(=O)[C@@H](CO)NC(=O)[C@H](N)Cc1ccc(C(=O)c2ccccc2)cc1)C(=O)O` [CBP603, (d-Bpa)(d-Ser)(d-Trp)(d-Ser)(d-Phe4No2)(d-Cha)(d-Arg)(d-Arg)(d-Arg)(d-Gln)(d-Arg)(d-Arg)] (H-[dBpa][dS][dW][dS][dPhe(4-NO2)][dCha][dR][dR][dR][dQ][dR][dR]-OH; N-terminus and C-terminus assumed), the figures for the IC50 in data set [5] and in data set [6] were 15.5 µM and 18.1 µM, respectively. The “Residual activity of peptide after 1 hr human serum treatment” value in data set [4] is recorded as >50% of original.

Take “(d-Arg)(d-Arg)(d-Arg)(d-Bpa)(d-Arg)(d-Arg)(d-Arg)(d-Phe-2,3,4,5,6-F)(d-Cha) ([dR][dR][dR][dBpa][dR][dR][dR][dPhe(F5)][dCha]) [CBP703]”: the “G2 checkpoint abrogating activity (in words)” value in the data set with Jurkat cells [1] is “retain G2 checkpoint abrogating activity comparable to other peptides having significant G2 checkpoint abrogating activity”.

Take “(d-Arg)(d-Arg)(d-Arg)(d-Arg)(d-Bpa)(d-Arg)(d-Trp)(d-Arg)(d-Phe-2,3,4,5,6-F)(d-Cha) ([dR][dR][dR][dR][dBpa][dR][dW][dR][dPhe(F5)][dCha]) [CBP702]”: in the data set with Jurkat cells [1], the “G2 checkpoint abrogating activity (in words)” value is reported as “retain G2 checkpoint abrogating activity comparable to other peptides having significant G2 checkpoint abrogating activity”.

Take `N=C(N)NCCC[C@@H](NC(=O)[C@@H](CCCNC(=N)N)NC(=O)[C@@H](CCC(N)=O)NC(=O)[C@@H](CCCNC(=N)N)NC(=O)[C@@H](CCCNC(=N)N)NC(=O)[C@@H](CCCNC(=N)N)NC(=O)[C@@H](CC1CCCCC1)NC(=O)[C@@H](Cc1c(F)c(F)c(F)c(F)c1F)NC(=O)[C@@H](CO)NC(=O)[C@@H](Cc1c[nH]c2ccccc12)NC(=O)[C@@H](CO)NC(=O)[C@@H](CC(=O)O)NC(=O)[C@H](N)Cc1ccc(C(=O)c2ccccc2)cc1)C(=O)O` [CBP505, (d-Bpa)(d-Asp)(d-Ser)(d-Trp)(d-Ser)(d-Phe-2,3,4,5,6-F)(d-Cha)(d-Arg)(d-Arg)(d-Arg)(d-Gln)(d-Arg)(d-Arg)] (H-[dBpa][dD][dS][dW][dS][dPhe(F5)][dCha][dR][dR][dR][dQ][dR][dR]-OH; N-terminus and C-terminus assumed): the IC50 was 63.4 µM in data set [5] and > 100 µM in data set [6].

In the case of `N.N.[Cl][Pt][Cl]` [cisplatin, cis-diamminodichloroplatinum, reference compound], the IC50 in the data set on MIAPaCa2 (read-out: IC50 24 hr, additional 24 hour) is 16 µM; in the data set on MIAPaCa2 (read-out: IC50 48 hr, additional 48 hour), 31 µM; with MIAPaCa2 (read-out: IC50 72 hr, additional 72 hour), 46 µM. For the same compound, in the data set with CT26WT, the “Reduction of tumor growth as compared to vehicle-treated mice” value is 52.7%.

Take `N=C(N)NCCC[C@@H](NC(=O)[C@@H](CCCNC(=N)N)NC(=O)[C@@H](CCC(N)=O)NC(=O)[C@@H](CCCNC(=N)N)NC(=O)[C@@H](CCCNC(=N)N)NC(=O)[C@@H](CCCNC(=N)N)NC(=O)[C@@H](CC1CCCCC1)NC(=O)[C@@H](Cc1c(F)c(F)c(F)c(F)c1F)NC(=O)[C@@H](CO)NC(=O)[C@@H](Cc1c[nH]c2ccccc12)NC(=O)[C@@H](CO)NC(=O)[C@@H](Cc1ccc(C(=O)c2ccccc2)cc1)NC(=O)[C@H](N)Cc1ccc(O)cc1)C(=O)O` [CBP500, (d-Tyr)(d-Bpa)(d-Ser)(d-Trp)(d-Ser)(d-Phe-2,3,4,5,6-F)(d-Cha)(d-Arg)(d-Arg)(d-Arg)(d-Gln)(d-Arg)(d-Arg)] (H-[dY][dBpa][dS][dW][dS][dPhe(F5)][dCha][dR][dR][dR][dQ][dR][dR]-OH; N-terminus and C-terminus assumed): the G2 abrogating dose with Jurkat cells [1] is ≥0.39 µM. In the data set on Jurkat cells [2], the “Appearance of side effect when used alone” value is >50 µM. In the data set on Jurkat cells [3], the “Appearance of side effect when used with Colchicine” value is >12.5 µM. Further, the IC50 in data set [5] stood at 5.6 µM; in data set [6] it was 8 µM.

As to “(d-Arg)(d-Arg)(d-Bpa)(d-Arg)(d-Arg)(d-Arg)(d-Phe-2,3,4,5,6-F)(d-Cha) ([dR][dR][dBpa][dR][dR][dR][dPhe(F5)][dCha]) [CBP700]”, the “G2 checkpoint abrogating activity (in words)” value with Jurkat cells [1] was “retain G2 checkpoint abrogating activity comparable to other peptides having significant G2 checkpoint abrogating activity”.

For the origin of these results see patent publication US10149887B2, “Peptides and peptidomimetics in combination with t cell activating and/or checkpoint inhibiting agents for cancer treatment” (CanBas Co., Ltd., priority 2015, dated 2018).
